Experimental data as given in patent US20240082221A1, “COMPOSITIONS AND METHODS FOR THE IDENTIFICATION OF COMPOUNDS THAT PROTECT AGAINST LIPOFUSCIN CYTOTOXICITY” (priority 2021, published 2024).
Entries after “also recorded” stand apart in the source; their conditions may differ. Peptide text beside a SMILES is read from it. * marks the point of attachment. Cbz = O=C(OCc1ccccc1)*; CH2F = FC*

Assays:
[1] = system: ARPE-19 cells; conditions: for protection against lethal doses of A2E, viability: ARPE19 pretreated 1 hr, then A2E 25 μM for 24 hrs in presence of drug; for protection against lethal doses of A2E, viability / protection against light-independent LF (A2E/ATRD) cytotoxicity, RPE survival: AlamarBlue; for protection against light-independent LF (A2E/ATRD) cytotoxicity, RPE survival: ARPE-19, inhibitor pretreatment, A2E/ATRD 24 h, no light; for cell death in ARPE19 cells exposed to the substance: light-independent
Description: Cell Viability Assay. […] 1× AlamarBlue solution prepared in OptiMEM was used to replace the media supernatant and the plate's fluorescence was determined at 555 nm excitation/585 nm emission with a SpectraMax M (Molecular Devices, CA, USA), after 1 h. […] The exact timing of appearance of far-red (DRAQ7=plasma membrane leakage) and blue (NUC405=caspase 3 activation) fluorescence signals was critical to differentiate apoptosis and necrosis from secondary events, such as membrane damage and generalized proteolytic activation during the late phase of apoptosis and necrosis, respectively.
Real time monitoring of necrotic and apoptotic cell-death. Cell-death assay to study Lipofuscin's dark toxicity was performed. 90% confluent ARPE-19 or hfRPE were incubated overnight in serum free media supplemented with indicated LB concentration. Viability was assessed at 24 hrs by AlamarBlue®, or microscopy with NUC405/DRAQ7. Real time monitoring of necrotic (red) and apoptotic (blue) cell-death was performed by automated fluorescence microscopy. The exact timing of appearance of far-red (DRAQ7=plasma membrane leakage) and blue (NUC405=caspase 3 activation) fluorescence signals was critical to differentiate apoptosis and necrosis from secondary events, such as membrane damage and generalized proteolytic activation during the late phase of apoptosis and necrosis, respectively.
Chemical inhibitors. Chemical inhibitors used in this study are described in FIG. 12.

[2] = system: human MLKL; assay: Western blot of Ser358 phospho-MLKL, phosphorylation and polymerization of MLKL; format: cell-based; conditions: for effect on LF-induced phosphorylation and polymerization of MLKL: non-reducing conditions, cells with A2E/ATRD; for induction of phosphorylation and polymerization of MLKL: absence of light
Description: (§1) Immunoblotting. Total cell lysates were extracted using RIPA lysis buffer (50 mM TrisHCl, Ph 8.0, 150 mM NaCl, 1% NP40, 0.5% Sodium Deoxycholate, 0.1% SDS, protease-phosphatase inhibitor) after the incubation of the specific sample group in a 48 well plate. Sonication or syringing (20 times) was done followed by centrifugation at 12,000×g for 10 mins and the supernatant was collected and stored in −80° C. Proten concentration from homogenates were assessed by Pierce Rapid Gold BCA protein assay kit (ThermoFisher Scientific, cat.no. A53225). Then 30 μg of protein was analyzed by standard SDS-PAGE gel. Samples were mixed 4:1 (v:v) with Nupage loading buffer with or without 8% 0-mercaptoethanol and heated for 10 min at 72° C. SDS-PAGE was done using 4-12% Nupage gel and buffer (Life, NP0335BOX). Next, SDS-PAGE gel was transferred to nitrocellulose membrane (Whatman, PROTAN BA83) overnight at 20V. The following day, 5% milk in TBS was used for 2 h blocking the membrane and then primary antibody was added in TBST (TBS, 0.1% Tween-20) for overnight at 4° C. Next day membranes were washed and incubated for 2 hours at room temperature with HRP conjugated secondary antibody (cat #G21234, Invitrogen) at 1:10,000 dilution. After 3 more washed membranes were probed with enhanced chemiluminescence (ECL) reagent and detected using an X-ray films for chemiluminescence image (GE healthcare, RPN2106). Scanning/imaging and quantitation of the image was done using silverfast 8 application software and Fiji Image J. Antibodies for Western blotting were list in FIG. 10.
For its phosphorylation, MLKL and its kinase need to be recruited into multiprotein complexes, known as necrosomes (FIG. 4O). Necrosomes are not well conserved among species and vary also with the nature of the stimuli that triggers their formation. […] Considering that phosphorylation of human MLKL at Ser358 (pMLKL), is a hallmark triggering event and marker of necroptosis, the Ser358-phosphorylation and polymerization status of MLKL in cells with LF was determined. […] A prerequisite for the assembly of these RIP kinases into necrosomes was their phosphorylation.

[3] = system: CHOP; assay: Western blot of CHOP upregulation (UPR, downstream of PERK); format: cell-based, Human; conditions: cells incubated with A2E
Description: as §1

[4] = system: ARPE19 cells; assay: ATR-induced light-independent cell death; format: cell-based, Human; conditions: pre-treatment with 33 μM
Excerpt: Overall, these indicate that necroptosis is a specific readout of ocular lipofuscin toxicity, easily distinguishable from the poisonous effects of ATR.

[5] = system: cathepsin D; format: cell-based
Excerpt: (§2) Next, A2E buildups were imaged using a combination of DIC and fluorescence: A2E appeared as granules with well-defined edges, both within cells or after drying over a coverslip (FIGS. 14D and 14E). Next, the ability of the suspected A2E crystals to damage lysosomal membranes was investigated. A recently developed galectin-3 puncta assay for early detection of lysosomal membrane permeabilization (LMP) was used. Briefly, cytosolic galectin-3 rapidly binds to the glycocalyx in the luminal face of lysosomal membranes as they become leaky, which is easily detectable with anti-galectin high-affinity antibodies. L-Leucyl-L-Leucine methyl ester (LLO) a lysosomotropic peptide that causes LMP was used as positive control of puncta formation (FIG. 14E). […] LMP was confirmed by showing the […] of cathepsin D, as surrogate of lysosomal enzymes. […] Also, very remarkable was the observation that the same unique pattern of protection with arimoclomol and Nec-7 but not Nec-1 was observable for LLO (FIG. 14K), consistent with the idea that necroptosis by A2E is being caused by LMP.

[6] = system: lysosomal membranes; format: cell-based
Excerpt: as §2

[7] = system: IRE1α; assay: qPCR of spliced XBP1 (XBP1s) as readout of IRE1α activity in ARPE-19; format: cell-based, Human; conditions: in the dark, qPCR
Excerpt: RNA isolation and quantitative PCR. Total RNA was extracted from cultured cells or mouse eye RPE layer using the RNeasy Mini kit (QIAGEN). The total RNA was digested with deoxyribonuclease I to prevent amplification of genomic DNA. The total RNA then was reversed transcribed using High-Capacity cDNA Reverse Transcription Kit (ThermoFisher Scientific, cat.no. 4368814) and analyzed gene expression using SYBR Green Master Mix (ThermoFisher Scientific, cat.no. 4472908) in an Applied Biosystems StepOne real time PCR machine. GAPDH was used as a reference gene. […] After genes were amplified by real time PCR, some of the PCR products were separated by 2.5% agarose gel.

[8] = system: UPR (PERK and ATF6 branches); assay: Western blot of ER-stress markers (p-eIF2a, ATF4, BiP, ATF6) without illumination; format: cell-based, Human
Description: as §1
The causal link between LF accumulation and ER-stress without light assistance was analyzed (FIG. 6A). […] The activation of the IRE1α branch was visualized by qPCR.

## COc1cc(OC)c(/C=C/S(=O)(=O)Cc2ccc(OC)c(OP(=O)(O)O)c2)c(OC)c1 [Briciclib]
[1]
  protection against lethal doses of A2E, viability: did not confer significant protection

## CN1CCN(C(=O)c2ccc(-c3ccc4c(C=O)c(O)ccc4c3)s2)CC1 [MKC-3946]
[1]
  protection against light-independent LF (A2E/ATRD) cytotoxicity, RPE survival: did not translate into survival

## CC(C)S(=O)(=O)c1ccc2nccc(Nc3ccc4scnc4c3)c2c1 [GSK'872]
[1]
  protection against light-independent LF (A2E/ATRD) cytotoxicity, RPE survival: did not protect; also recorded: not affected
[2]
  effect on LF-induced phosphorylation and polymerization of MLKL: did not; also recorded: not affected
[3]
  effect on LF-induced upregulation of CHOP / UPR: neither Nec1 nor GSK'872 effected the UPR

## O=C(/C=C/c1ccccc1)NC(NC(=S)Nc1ccc(Cl)cc1)C(Cl)(Cl)Cl (stereo not shown) [SAL003]
[1]
  protection against lethal doses of A2E, viability: protected against lipofuscin

## COc1ccc(O)c(C(C)(C)C)c1 [BHA]
[1]
  protection against light-independent LF (A2E/ATRD) cytotoxicity, RPE survival: did not rescue

## c1cc(Nc2cc(C3CC3)[nH]n2)nc(Nc2ccc3nc[nH]c3c2)n1 [APY29]
[1]
  protection against light-independent LF (A2E/ATRD) cytotoxicity, RPE survival: did not translate into survival

## Cc1cc(Nc2cc(N)ncn2)c(=O)n2c1C(=O)NC21CCCCC1 [eFT508]
[1]
  protection against lethal doses of A2E, viability: did not confer significant protection

## COc1ccc(-n2c(SCC#N)nc3sc4c(c3c2=O)CCCC4)cc1 [Nec5]
[1]
  protection against light-independent LF (A2E/ATRD) cytotoxicity, RPE survival: not affected
[2]
  effect on LF-induced phosphorylation and polymerization of MLKL: not affected

## CN1C(=O)C(Cc2c[nH]c3ccccc23)NC1=S (stereo not shown) [Nec1, Necrostatin-1]
[1]
  protection against light-independent LF (A2E/ATRD) cytotoxicity, RPE survival: not affected
[2]
  effect on LF-induced phosphorylation and polymerization of MLKL: did not block phosphorylation and polymerization of MLKL; also recorded: not affected
[3]
  effect on LF-induced upregulation of CHOP / UPR: neither Nec1 nor GSK'872 effected the UPR
[4]
  effect on cell death by ATR: did not block cell death

## CC(C)c1nc(-c2ccc(NC(=O)Nc3cccc(C(F)(F)F)c3)c3ccccc23)c2c(N)nccn12 [KIRA3]
[1]
  protection against light-independent LF (A2E/ATRD) cytotoxicity, RPE survival: sufficient to protect against necroptosis by LF

## COC(=O)[C@H](CC(C)C)NC(=O)[C@@H](N)CC(C)C [LLO, L-Leucyl-L-Leucine methyl ester]
[5]
  cathepsin-D activity: caused reduction in cathepsin-D activity
[6]
  lysosomal membrane permeabilization (galectin-3 puncta): induced Lysosome membrane permeabilization (LMP)

## all-trans-retinal dimers [ATRD]
[1]
  cell death in ARPE19 cells exposed to the substance: Dose dependent cell death
[2]
  induction of phosphorylation and polymerization of MLKL: dose-dependent phosphorylation and polymerization of MLKL
[7]
  induction of XBP1s: dose and time-dependent inductions of XBP1s
[8]; without light
  induction of ATF4 and BiP: highest induction of ATF4 and BiP

## O=S(=O)(N=Cc1c(O)ccc2ccccc12)c1cccs1 [STF-0831]
[1]
  protection against light-independent LF (A2E/ATRD) cytotoxicity, RPE survival: did not translate into survival

## Cc1cc(O)c(C(=O)/C=C/c2ccc(O)c([N+](=O)[O-])c2)c(=O)o1 [Nec2]
[1]
  protection against light-independent LF (A2E/ATRD) cytotoxicity, RPE survival: not affected
[2]
  effect on LF-induced phosphorylation and polymerization of MLKL: not affected

## CCC(=O)N1CCN(c2ccc(-n3c(=O)ccc4cnc5ccc(-c6cnc7ccccc7c6)cc5c43)cc2C(F)(F)F)CC1 [Torin-1]
[1]
  protection against lethal doses of A2E, viability: did not confer significant protection

## methyl beta-cyclodextrins [MβCD]
[1]; 10 μM methyl-βCD, 20 μM A2E
  protection against A2E cytotoxicity by neutralization of detergent activity: did not protect against A2E

## Cc1cc(=O)oc2c(C=O)c(O)ccc12 [4μ8C]
[1]
  protection against light-independent LF (A2E/ATRD) cytotoxicity, RPE survival: did not translate into survival

## N=C(N)N/N=C/c1c(Cl)cccc1Cl [Guanabenz]
[1]
  protection against lethal doses of A2E, viability: did not confer significant protection

## COC(=O)C[C@H](NC(=O)[C@H](C)NC(=O)[C@@H](NC(=O)OCc1ccccc1)C(C)C)C(=O)CF [z-VAD(OMe)-FMK] (Cbz-Val-Ala-Asp(OMe)-CH2F)
[1]
  protection against light-independent LF (A2E/ATRD) cytotoxicity, RPE survival: provided no protection

## CN1C(=O)NC(Cc2c[nH]c3c(Cl)cccc23)C1=O (stereo not shown) [Nec1s]
[1]
  protection against light-independent LF (A2E/ATRD) cytotoxicity, RPE survival: not affected
[2]
  effect on LF-induced phosphorylation and polymerization of MLKL: not affected
[4]
  effect on cell death by ATR: did not block cell death

## COc1nccnc1NS(=O)(=O)c1ccc(NC(=O)/C=C/c2ccc([N+](=O)[O-])s2)cc1 [necrosulfonamide]
[1]
  protection against light-independent LF (A2E/ATRD) cytotoxicity, RPE survival: increased RPE survival in a dose dependent manner

## [O-][n+]1cccc(/C(Cl)=N/OC[C@H](O)CN2CCCCC2)c1 [arimoclomol]
[1]
  protection against light-independent LF (A2E/ATRD) cytotoxicity, RPE survival: protects against necroptosis by lipofuscin
[5]
  effect on loss of cathepsin-D activity caused by A2E: prevented

## tunicamycin
[8]; 6 hrs treatment, 20 μM A2E
  cleavage of ATF6: significant cleavage

## CC(C)(C)c1nc(-c2cccc(NS(=O)(=O)c3c(F)cccc3F)c2F)c(-c2ccnc(N)n2)s1 [dabrafenib]
[1]
  protection against light-independent LF (A2E/ATRD) cytotoxicity, RPE survival: increased RPE survival in a dose dependent manner

## CC1=C(/C=C/C(C)=C/C=C/C(C)=C/C=O)C(C)(C)CCC1 [ATR, all-trans-retinal]
[1]
  cell death in ARPE19 cells exposed to the substance: Dose dependent cell death
[2]
  induction of phosphorylation and polymerization of MLKL: no increase in phosphorylation/polymerization of MLKL
